# Data reported in US20210179683A1, “METHOD OF RESPONSE PREDICTION FOR BCL2 FAMILY PROTEIN TARGETING DRUG” (Proteina Co., Ltd., priority 2019, published 2021).
# Columns and labels:
# BCL2-BAD interaction = target: T1, BCL2-BAD interaction (Homo sapiens, UniProt P10415); experiment: PPI between endogenous BCL2 of drug-treated cells and exogenous BAD-GFP (single-molecule pull-down, TIRF); assay type: cell-based; settings: 24 hours
# T1 construct: endogenous in cells; host or cells: HL60, OCI-LY3
# Method: (§1) Blood cancer cells (The Korean Cell Line Bank and ATCC; HL-60 (CVCL_0002), OCI-LY3 (CVCL_8800)), Ramos (CVCL_0597), U937, THP1, and SUDHL8) and the blood cancer cell pellets from buffy coats of patients were each suspended in a lysis buffer (HEPES 50 mM NaCl 150 mM Glycerol 10% (w/v) GDN (Digitonin) 1% (w/v) with 2% (w/v) phosphatase inhibitor cocktail ⅔ (P5726, P0044)) and vortexed three times at regular intervals of 10 min. After 30 min, the lysis buffer containing the pellet homogenate was centrifuged at 15,000 g for 10 min. The supernatant thus formed was used as an analysis lysate to be applied to a substrate in subsequent experiments. […]
# The cell lysate, prepared in Example 1.2, containing the probe-labeled first protein-interacting protein was added to the substrate prepared in Example 1.3. […] Then, protein-protein interactions were measured as follows:
# The substrate was fixedly mounted on a total internal reflection fluorescence and imaged to obtain data for protein-protein interaction (binding). […]
# (§2) For example, the method proposed in this Example can quantitatively measure changes in PPI intensity and complex formation after and before treatment with BCL2-targeting inhibitors. […]
# MCL1-NOXA interaction = target: T2, MCL1-NOXA interaction (Homo sapiens, UniProt Q07820); experiment: PPI between endogenous MCL1 of drug-treated cells and exogenous GFP-NOXA; assay type: cell-based; settings: HL60 or OCI-LY3 cells, 100 nM, 24 hours, vs DMSO
# T2 construct: endogenous in cells; host or cells: HL60, OCI-LY3
# Method: Excess lysate was washed off with a washing buffer (HEPES 50 mM NaCl 150 mM glycerol 1% GDN 0.03%). Then, protein-protein interactions were measured as follows: […]
# BCL-XL = target: T3, BCL-XL (Homo sapiens, UniProt Q07817); experiment: PPI of endogenous BCL-XL of drug-treated cells with exogenous BAD; assay type: cell-based; settings: HL60 or OCI-LY3 cells, 100 nM, 24 hours, vs DMSO
# T3 construct: endogenous in cells; host or cells: HL60, OCI-LY3
# Method: as §1
# The cell lysate, prepared in Example 1.2, containing the probe-labeled first protein-interacting protein was added to the substrate prepared in Example 1.3. […] Then, protein-protein interactions were measured as follows: […]
# as §2
# BCL2-BIM interaction [1] = target: T4, BCL2-BIM interaction (Homo sapiens, UniProt P10415); experiment: BCL2-BIM PPI intensity with inhibitor added together with BIM-GFP to pulled-down BCL2; assay type: binding; settings: various concentrations of inhibitor added with BIM-GFP; BCL2 from HL60
# Method: Excess lysate was washed off with a washing buffer (HEPES 50 mM NaCl 150 mM glycerol 1% GDN 0.03%). Then, protein-protein interactions were measured as follows:
# This Example can be used to measure direct relationship between targeting inhibitors used and the BCL2 family proteins and related signaling proteins. To this end, BCL2 or MCL1 protein was used as a first protein while BIM-GFP protein served as a first protein-interacting protein.
# BCL2 = BCL2 expression level in drug-treated cells; settings: OCI-LY3 cells, 24 hours
# BAX (N-terminus exposed) = experiment: Detection of N-terminus exposed (active conformation) BAX in GDN lysates of drug-treated cells; assay type: cell-based, human; settings: Staurosporine for one hour or venetoclax for 24 hours; lysis buffer containing GDN
# From the text: (§3) In order to achieve this Example, a specimen may be prepared by artificially inducing apoptosis.
# BAX = BAX level after forced N-terminus exposure with Triton X-100 in lysates of drug-treated cells; assay type: cell-based, human; settings: Staurosporine for one hour or venetoclax for 24 hours; lysis buffer containing Triton X-100
# From the text: as §3
# leukocyte count = experiment: Leukocyte count of treated blood cancer patients; assay type: in vivo, human
# From the text: The method provided herein can lead to a method for tracing molecular states of a patient with time. In greater detail, the interaction analysis of bone marrow or blood specimens collected at various stages from a blood cancer patient can be used to provide information helpful in determining BCL2 family protein-dependence and whether to administer a corresponding targeted anticancer agent. […] Afterwards, a cord blood stem cell transplantation brought about complete remission in the patient. In addition, time series diagnosis was performed for patient 2 in the same manner as for patient 1 (FIG. 35). In patient 2, the signaling pathway of the BCL2 family protein could not be controlled by prescribing the FLT3 targeting inhibitor, either. […] From the results obtained above, it is understood that quizartinib prescription cannot bring about any clinical effect.
# BCL2-BIM interaction [2] = target: T4, BCL2-BIM interaction; experiment: BCL2-BIM PPI in bone marrow or whole blood specimens of blood cancer patients over the course of treatment; assay type: in vivo; set-up: PPI counts between BCL2, MCL1, or BCL-XL, all endogenous to the samples from patient 1, and exogenous BIM; from tissue; host or cells: bone marrow and whole blood of blood cancer patients; settings: patient 1; bone marrow after quizartinib, whole blood after venetoclax and LDAC
# From the text: The method provided herein can lead to a method for tracing molecular states of a patient with time. In greater detail, the interaction analysis of bone marrow or blood specimens collected at various stages from a blood cancer patient can be used to provide information helpful in determining BCL2 family protein-dependence and whether to administer a corresponding targeted anticancer agent. […] Afterwards, a cord blood stem cell transplantation brought about complete remission in the patient.
# In addition, time series diagnosis was performed for patient 2 in the same manner as for patient 1 (FIG. 35). In patient 2, the signaling pathway of the BCL2 family protein could not be controlled by prescribing the FLT3 targeting inhibitor, either. […] From the results obtained above, it is understood that quizartinib prescription cannot bring about any clinical effect.
# T1 sequence (P10415 whole entry): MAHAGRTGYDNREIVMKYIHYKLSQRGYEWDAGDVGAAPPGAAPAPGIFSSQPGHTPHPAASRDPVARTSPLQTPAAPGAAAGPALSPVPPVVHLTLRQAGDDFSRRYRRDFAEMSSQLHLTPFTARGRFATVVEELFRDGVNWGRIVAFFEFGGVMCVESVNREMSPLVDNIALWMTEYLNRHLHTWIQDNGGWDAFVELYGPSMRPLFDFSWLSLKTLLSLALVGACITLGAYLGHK
# T4 sequence (P10415 whole entry): as above
# T2 sequence (Q07820 whole entry): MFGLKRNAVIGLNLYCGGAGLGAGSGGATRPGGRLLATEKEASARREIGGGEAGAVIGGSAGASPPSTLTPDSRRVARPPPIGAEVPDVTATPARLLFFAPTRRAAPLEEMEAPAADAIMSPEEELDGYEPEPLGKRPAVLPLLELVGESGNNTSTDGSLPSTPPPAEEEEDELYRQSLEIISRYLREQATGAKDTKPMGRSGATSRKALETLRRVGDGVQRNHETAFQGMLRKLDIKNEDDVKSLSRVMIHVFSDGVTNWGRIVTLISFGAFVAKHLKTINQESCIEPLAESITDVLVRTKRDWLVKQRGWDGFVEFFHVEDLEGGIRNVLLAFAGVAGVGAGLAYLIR
# T3 sequence (Q07817 whole entry): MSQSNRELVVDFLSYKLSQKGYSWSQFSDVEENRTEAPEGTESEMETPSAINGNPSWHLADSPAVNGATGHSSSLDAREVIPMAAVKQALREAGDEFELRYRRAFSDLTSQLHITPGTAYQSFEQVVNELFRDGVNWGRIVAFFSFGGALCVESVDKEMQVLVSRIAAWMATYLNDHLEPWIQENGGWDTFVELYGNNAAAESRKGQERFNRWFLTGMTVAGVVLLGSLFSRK
compound,measurement,setting,value
CO[C@H]1/C=C/C[C@H](C)[C@@H](C)S(=O)(=O)NC(=O)c2ccc3c(c2)N(C[C@@H]2CC[C@H]21)C[C@@]1(CCCc2cc(Cl)ccc21)CO3 [AMG176],BCL2-BAD PPI intensity,"BCL2-BAD interaction; HL60 and OCI-LY3 cells, 100 nM, vs DMSO",did not change
same,MCL1-NOXA PPI,MCL1-NOXA interaction,selectively increase
same,BCL-XL PPI intensity,BCL-XL,responsive to none
Cc1c2c(nn1C)CSCc1cc(n(C)n1)CSc1cc(c3ccccc3c1)OCCCc1c(C(=O)O)n(C)c3c-2c(Cl)ccc13 [AZD5991],BCL2-BAD interaction (PPI),"BCL2-BAD interaction; OCI-LY3 cells, vs non-treated group",no influences
same,BCL2-BIM PPI intensity,BCL2-BIM interaction [1],not affected
same,expression level of BCL2,BCL2,does not incite a significant change
CN[C@@H]1C[C@H]2O[C@@](C)([C@@H]1OC)n1c3ccccc3c3c4c(c5c6ccccc6n2c5c31)C(=O)NC4 [Staurosporine],N-terminus exposed BAX signals,BAX (N-terminus exposed),increased signals
same,N-terminus-exposed BAX after artificial exposure with Triton X-100,BAX,constant values
CC(C)(C)c1cc(NC(=O)Nc2ccc(-c3cn4c(n3)sc3cc(OCCN5CCOCC5)ccc34)cc2)no1 [quizartinib],leukocyte count,leukocyte count; patient 1,drastic rise
same,leukocyte count,leukocyte count; patient 2,about three folds increased
same,BCL2-BIM PPI,BCL2-BIM interaction [2],drastic increase
